Read-outs that look alike come from different tables or passages of the source. Where a SMILES comes first, the peptide text is derived from it. [ ]: non-standard residue; d: D form. The star is where a group is joined. X1 = CO[C@H]1O[C@H](COS(=O)(=O)O)[C@@H](O[C@@H]2O[C@@H](C(=O)O)[C@@H](O[C@H]3O[C@H](COS(=O)(=O)O)[C@@H](O[C@@H]4O[C@H](C(=O)O)[C@@H](O[C@H]5O[C@H](COS(=O)(=O)O)[C@@H](OCCOCCOCCOCCNC(=O)COCCOCCOCCOCCSC6CC(=O)N(CCCC(=O)*)C6=O)[C@H](OC)[C@H]5OC)[C@H](OC)[C@H]4OC)[C@H](OS(=O)(=O)O)[C@H]3OS(=O)(=O)O)[C@H](OC)[C@H]2OC)[C@H](OS(=O)(=O)O)[C@H]1OS(=O)(=O)O; d(hArg(Et2)) = CCN=C(NCC)NCCCC[C@@H](N)C(=O)O; hArg(Et2) = CCN=C(NCC)NCCCC[C@H](N)C(=O)O; dPhe(4-Cl) = N[C@H](Cc1ccc(Cl)cc1)C(=O)O; d2Nal = N[C@H](Cc1ccc2ccccc2c1)C(=O)O; d3Pal = N[C@H](Cc1cccnc1)C(=O)O
What was measured:
[1] = target: hATIII (Homo sapiens, UniProt P01008); assay: Competitive hATIII binding assay using Biomolecular Interaction Analysis (BIA); settings: for IC50: 15 nmol/L hATIII, compound 9 immobilised on chip, 25° C., read-out: IC50 BIA (competitive ATIII binding); for competitive binding potential to ATIII (in words): compared to parent pentasaccharide-spacer residue / parent peptide
Sequence of hATIII (P01008 33-464): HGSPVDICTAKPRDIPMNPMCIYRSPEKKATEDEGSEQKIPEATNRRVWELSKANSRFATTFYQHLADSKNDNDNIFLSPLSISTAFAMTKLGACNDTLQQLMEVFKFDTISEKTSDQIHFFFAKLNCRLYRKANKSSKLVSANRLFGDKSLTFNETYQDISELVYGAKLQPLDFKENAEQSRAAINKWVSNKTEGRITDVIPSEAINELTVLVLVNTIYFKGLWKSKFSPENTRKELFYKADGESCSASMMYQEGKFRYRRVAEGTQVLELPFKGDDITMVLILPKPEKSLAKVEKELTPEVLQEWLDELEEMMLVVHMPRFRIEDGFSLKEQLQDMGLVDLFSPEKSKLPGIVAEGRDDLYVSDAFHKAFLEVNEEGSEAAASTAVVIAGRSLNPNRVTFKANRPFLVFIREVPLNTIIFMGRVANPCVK
Method: The sensorgrams and report points were analysed with blanc flow cell subtraction using BIAevaluation 3.2. IC50 values were calculated using graphpad Prism 3.0.
Principle and aim of the test: Biomolecular Interaction Analysis (BIA) studies the interaction between (bio)molecules by covalent immobilisation of one of the interactants to a sensor chip surface, and injection of the other interactant in the continuous buffer flow over this surface. Binding is registered as a change in refractive index on this surface and is proportional to the molecular weight (Mw) of the interactants.
To study the interaction between hATIII and pentasaccharide conjugates, compound 9 is covalently coupled to the sensor chip surface. Binding of hATIII to the pentasaccharide generates a strong signal as a resultant of the difference in Mw between the bound (small) pentasaccharide ligand and the (large) hATIII analyte. Preincubated samples containing a constant concentration of hATIII and variable concentrations of free pentasaccharide or conjugate were injected over the surface. Binding of pentasaccharide or conjugate to ATIII during preincubation will result in a reduction of ATIII binding to the immobilised pentasaccharide. This competitive binding assay allows determination of IC50 values for each pentasaccharide conjugate.
Experimental procedure: Compound 9 is covalently coupled to a CM5 sensor chip by amine coupling at pH 8.5. […] The unreacted hydroxysuccinimide groups are reacted with ethanolamine for 7 min. The surface is regenerated by three short injections of 5 μL 5 mol/L NaCl, at a flow rate of 25 μL/min.
A concentration series of hATIII was tested to estimate a sensitive concentration for inhibition (at 80% of maximum binding). At a flow rate of 20 μL/min three minute injections were carried out at both blanc and immobilised surface in series at 25° C. A report point is generated at 170 s. The surface is regenerated by a 12 s injection of 5 mol/L NaCl.
The hATIII injection or report point without pentasaccharide conjugate is set at 100% binding. The relative % binding of the pentasaccharides and the conjugates compared to maximum binding was used to generate a sigmoidal curve (with variable slope) by plotting Log [concentration] vs. % binding from which the IC50 values were derived.

[2] = species not given; cited from earlier work
[3] = Pharmacokinetics in rat after 125I labeling, not corrected for dehalogenation
Method: (§1) After labeling, the conjugate was purified by gel filtration on Sephadex G25 and anion exchanger HiTrap Q10. […] In order to prevent accumulation of ^125I^− in the thyroid, rats were orally treated with 10 mg/kg potassium iodide prior to administration of compound.
The correct determination of the fate of ^125I-labeled conjugates might be affected aversely by metabolic intracellular endogenous dehalogenation to give free ^125I^− in circulation.

[4] = rat, in vivo, iv
Method: as §1

[5] = target: T1, rat ATIII (Rattus norvegicus, UniProt A0A8I5Y9G3); assay: Determination of (poly)peptide-pentasaccharide-ATIII complex in rat plasma (sandwich ELISA); type: binding; settings: plasma 1 min after i.v. 3.5 nmol/kg in rat
T1 construct: from tissue; host or cells: plasma of male Wistar rats
T1 sequence (A0A8I5Y9G3 35-465): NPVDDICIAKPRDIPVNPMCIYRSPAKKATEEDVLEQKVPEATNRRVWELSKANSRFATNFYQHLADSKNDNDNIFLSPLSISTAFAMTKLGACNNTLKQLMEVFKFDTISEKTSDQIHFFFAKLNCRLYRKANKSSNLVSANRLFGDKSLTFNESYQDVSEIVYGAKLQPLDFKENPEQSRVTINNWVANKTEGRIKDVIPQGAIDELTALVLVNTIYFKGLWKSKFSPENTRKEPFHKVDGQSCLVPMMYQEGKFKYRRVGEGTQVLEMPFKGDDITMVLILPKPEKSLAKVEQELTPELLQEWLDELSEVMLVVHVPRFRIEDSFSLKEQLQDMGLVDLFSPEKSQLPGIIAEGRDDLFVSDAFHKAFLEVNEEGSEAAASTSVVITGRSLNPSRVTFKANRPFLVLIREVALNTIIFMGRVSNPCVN

[6] = rat, in vivo, iv, 3.5 nmol/kg
Source text: The human Enzyme-Linked Immuno-Sorbent Assay (ELISA) has been developed to measure human insulin in human and rat plasma or buffer system. In this way the ELISA could be used to determine the insulin concentration in plasma samples derived from pharmacokinetic experiments.
The assay is based on the immunochemical “sandwich” principle using two monoclonal antibodies, i.e. a solid phase bound, capture antibody and a detection antibody which is labeled with horseradish peroxidase (HRP).
The plate was washed to remove unbound enzyme-labeled antibody and subsequently the 3,3′,5,5′-tetramethylbenzidine/H2O2 substrate solution was added. The reaction was stopped with 0.5 M sulphuric acid and the microtiter plate was read spectrophotometrically at 450 nm. The intensity of colour is directly proportional to the concentration of insulin. Then for each plasma sample the mean concentration (mol/L) of insulin was determined.
The rats were anaesthetized by inhalation of a mixture of O2/N2O/isoflurane, after which the right jugular vein was cannulated. […] Blood was centrifuged after which the plasma was siphoned off and stored at −20° C. until use. The concentration of the tested compounds in the plasma samples were determined using the human ELISA against a calibration curve which was made of the stock solution of the tested compound itself. The concentration in the samples was expressed in nmol/L and the kinetic parameters were calculated with the noncompartment model of WinNonlin.

[7] = in rat, i.v., Chan et al. 1991; cited from earlier work
[8] = test system: glucose levels; assay: Glucose suppression test in vivo in rats; design: species or system rat; settings: i.v. doses of 24 and 48 nmol/kg (FIG. 21, 22)
Method: The animals were fasted overnight (16 hours) prior to the experiment. In the morning blood was sampled from all the rats by cutting a little piece of the tail, after which the blood was dropped on a test strip and the glucose levels were measured with an ACCU-Check Sensor blood glucose monitor (Roche Diagnostics). […] At various time intervals blood samples were taken by removing the crusted blood, after which the glucose content was determined immediately as described.

[9] = Table 6, rat, i.v., 125I label, not corrected for dehalogenation, n = 3

**Q.** Which IC50 [1] does the source give for COC[C@H]1O[C@H](OC)[C@H](OS(=O)(=O)O)[C@@H](OC)[C@@H]1O[C@@H]1O[C@@H](C(=O)O)[C@@H](O[C@H]2O[C@H](COS(=O)(=O)O)[C@@H](O[C@@H]3O[C@H](C(=O)O)[C@@H](O[C@H]4O[C@H](COS(=O)(=O)O)[C@@H](OCCOCCOCCOCCN)[C@H](OC)[C@H]4OC)[C@H](OC)[C@H]3OC)[C@H](OS(=O)(=O)O)[C@H]2OS(=O)(=O)O)[C@H](OC)[C@H]1OC [Compound 7] here?
**A.** 0.096 µM

**Q.** With C[C@@H](O)[C@@H]1NC(=O)[C@H](CCCCN)NC(=O)[C@@H](Cc2c[nH]c3ccccc23)NC(=O)[C@H](Cc2ccccc2)NC(=O)[C@@H](NC(=O)[C@H](N)Cc2ccccc2)CSSC[C@@H](C(=O)N[C@H](CO)[C@@H](C)O)NC1=O [octreotide] as the compound, how does the “t ½” value [2] read?
**A.** 102 min

**Q.** For COC1OC(COS(=O)(=O)O)C(OC2OC(C(=O)O)C(OC3OC(COS(=O)(=O)O)C(OC4OC(C(=O)O)C(OC5OC(COS(=O)(=O)O)C(OCCOCCOCCOCCN)C(OC)C5OC)C(OC)C4OC)C(OS(=O)(=O)O)C3OS(=O)(=O)O)C(OC)C2OC)C(OS(=O)(=O)O)C1OS(=O)(=O)O (stereo not drawn) [Compound 9], which IC50 [1] is on record?
**A.** 0.0055 µM

**Q.** For calcitonin, which “t ½” value [2] is on record?
**A.** 20 min

**Q.** Which elimination half-life ([3]; rats, control, data not shown) does the source give for [125IH] [^125I^−] here?
**A.** 192 min

**Q.** Which results are given for “recH insulin: recombinant human insulin (batch SIHR017, from Diosynth)”?
**A.** AUCinf [4]: 481 h · cpm/0.1 mL; Cl [4]: 69.3 mL/min/kg; MRT [4]: 30 min; Vss [4]: 2.225 L/kg; binding to rat ATIII in circulation (complex detected) [5]: cannot form a complex with ATIII; Cl [6]: 13.3 ± 2 mL/min/kg; MRT [6]: 0.84 ± 6 min; T½ eli [6]: 1.98 ± 0.06 min; Vss [6]: 0.012 ± 0.002 L/kg

**Q.** For CC[C@H](C)[C@H](NC(=O)[C@H](CCC(N)=O)NC(=O)[C@H](Cc1c[nH]cn1)NC(=O)[C@H](C)N)C(=O)N[C@@H](Cc1ccc(O)cc1)C(=O)N[C@@H](CCC(N)=O)C(=O)N[C@@H](Cc1ccccc1)C(=O)N[C@H](C(=O)N[C@@H](CC(=O)O)C(=O)N[C@@H](CCCCN)C(=O)N[C@@H](CC(=O)O)C(=O)N[C@@H](CCCCN)C(=O)N[C@@H](CC(=O)O)C(=O)N[C@@H](CC(N)=O)C(=O)N[C@H](C(=O)N[C@@H](C)C(=O)N1CCC[C@H]1C(=O)N[C@@H](CCCNC(=N)N)C(=O)N[C@@H](CO)C(=O)N[C@@H](CCCCN)C(=O)N[C@H](C(=O)N[C@@H](CO)C(=O)N1CCC[C@H]1C(=O)N[C@@H](CCC(N)=O)C(=O)NCC(=O)N[C@@H](Cc1ccc(O)cc1)C(N)=O)[C@@H](C)CC)C(C)C)[C@@H](C)O [ADM(27-52)] (H-AHQIYQFTDKDKDNVAPRSKISPQGY-NH2; N-terminus and C-terminus assumed), which Cl ([3]; rat, in vivo, iv) is on record?
**A.** 112 ± 9 mL/h

**Q.** What about the Vss ([3]; rat, in vivo, iv) of the same compound?
**A.** 556 ± 48 ml/rat

**Q.** What about the “competitive binding potential to ATIII (in words)” value [1] of the same compound?
**A.** no significant competitive binding to ATIII

**Q.** With CC[C@H](C)[C@H](NC(=O)[C@H](CCC(N)=O)NC(=O)[C@H](Cc1c[nH]cn1)NC(=O)[C@H](C)NC(=O)CCCN1C(=O)CC(SCCOCCOCCOCCOCC(=O)NCCOCCOCCOCCO[C@H]2[C@H](OC)[C@@H](OC)[C@@H](O[C@H]3[C@H](OC)[C@@H](OC)[C@H](O[C@H]4[C@H](OS(=O)(=O)O)[C@@H](OS(=O)(=O)O)[C@@H](O[C@H]5[C@H](OC)[C@@H](OC)[C@H](O[C@H]6[C@H](OS(=O)(=O)O)[C@@H](OS(=O)(=O)O)[C@@H](OC)O[C@@H]6COS(=O)(=O)O)O[C@H]5C(=O)O)O[C@@H]4COS(=O)(=O)O)O[C@@H]3C(=O)O)O[C@@H]2COS(=O)(=O)O)C1=O)C(=O)N[C@@H](Cc1ccc(O)cc1)C(=O)N[C@@H](CCC(N)=O)C(=O)N[C@@H](Cc1ccccc1)C(=O)N[C@H](C(=O)N[C@@H](CC(=O)O)C(=O)N[C@@H](CCCCN)C(=O)N[C@@H](CC(=O)O)C(=O)N[C@@H](CCCCN)C(=O)N[C@@H](CC(=O)O)C(=O)N[C@@H](CC(N)=O)C(=O)N[C@H](C(=O)N[C@@H](C)C(=O)N1CCC[C@H]1C(=O)N[C@@H](CCCNC(=N)N)C(=O)N[C@@H](CO)C(=O)N[C@@H](CCCCN)C(=O)N[C@H](C(=O)N[C@@H](CO)C(=O)N1CCC[C@H]1C(=O)N[C@@H](CCC(N)=O)C(=O)NCC(=O)N[C@@H](Cc1ccc(O)cc1)C(N)=O)[C@@H](C)CC)C(C)C)[C@@H](C)O (stereo partly drawn) [Compound 39] (X1-AHQIYQFTDKDKDNVAPRSKISPQGY-NH2) as the compound, how does the Cl [3, 9] read?
**A.** 5.0 ± 0.1 mL/h

**Q.** And the Vss [3, 9]?
**A.** 80 ± 3.3 ml/rat

**Q.** With CCN=C(NCC)NCCCC[C@H](NC(=O)[C@H](CC(C)C)NC(=O)[C@@H](CCCCNC(=NCC)NCC)NC(=O)[C@H](Cc1ccc(O)cc1)NC(=O)[C@H](CO)NC(=O)[C@@H](Cc1cccnc1)NC(=O)[C@@H](Cc1ccc(Cl)cc1)NC(=O)[C@@H](Cc1ccc2ccccc2c1)NC(C)=O)C(=O)N1CCC[C@H]1C(=O)N[C@H](C)C(N)=O [ganirelix] (Ac-[d2Nal][dPhe(4-Cl)][d3Pal]SY[d(hArg(Et2))]L[hArg(Et2)]P[dA]-NH2) as the compound, how does the “competitive binding potential to ATIII (in words)” value [1] read?
**A.** no competitive binding to ATIII

**Q.** What about the “t ½” value [2] of the same compound?
**A.** 720 min

**Q.** And the T½ [7]?
**A.** 84 min

**Q.** For COC1OC(COS(=O)(=O)O)C(OC2OC(C(=O)O)C(OC3OC(COS(=O)(=O)O)C(OC4OC(C(=O)O)C(OC5OC(COS(=O)(=O)O)C(OCCOCCOCCOCCN)C(OC)C5OC)C(OC)C4OC)C(OS(=O)(=O)O)C3OS(=O)(=O)O)C(OC)C2OC)C(OC)C1OS(=O)(=O)O (stereo not drawn) [Compound 8], which IC50 [1] is on record?
**A.** 0.058 µM

**Q.** With insulin detemir as the compound, how does the “blood glucose lowering activity (comparative example)” value [8] read?
**A.** less pronounced and less prolonged activity
